Legend:
Test in all cases: relative viability (nuclei count vs DMSO), 5 days (fraction); higher = more cells survive
[1] = test system: SK-LU-1
In short: (§1)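 Relative viability divides the nuclei count in treated wells by that in vehicle wells. Lung cancer cell lines were seeded in 1536-well plates, dosed by pin tool the next day, and fixed and stained after 5 days in one step with final 0.05% Triton X-100, 1% formaldehyde and 1 ug/ml Hoechst. Dosing was a single drug or a fixed anchor-drug dose plus five library-drug doses (not always all listed) in √10 steps, and values are medians of duplicate plates imaged at 4×.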

[2] = test system: NCI-H1651
In short: as §1

[3] = test system: LXF-289
In short: as §1

[4] = test system: COR-L 105
In short: as §1

[5] = test system: NCI-H2347
In short: as §1

[6] = test system: SK-MES-1
In short: as §1

[7] = test system: NCI-H1793
In short: as §1

[8] = test system: LC-2-ad
In short: as §1

[9] = test system: EMC-BAC-2
In short: as §1

[10] = test system: LK-2
In short: as §1

[11] = test system: EKVX
In short: as §1

[12] = test system: H3255
In short: as §1

[13] = test system: PC-3 [JPC-3]
In short: as §1

[14] = test system: NCI-H2085
In short: as §1

[15] = test system: NCI-H1915
In short: as §1

[16] = test system: NCI-H1395
In short: as §1

[17] = test system: NCI-H1437
In short: as §1

[18] = test system: NCI-H661
In short: as §1

[19] = test system: NCI-H2087
In short: as §1

[20] = test system: NCI-H2228
In short: as §1

[21] = test system: CAL-12T
In short: as §1

[22] = test system: NCI-H1755
In short: as §1

[23] = test system: NCI-H1944
In short: as §1

Question: For `CCCCCCCCCCCC1=C(O)C(=O)C=C(O)C1=O` [Embelin] + CS(=O)(=O)CCNCc1ccc(-c2ccc3ncnc(Nc4ccc(OCc5cccc(F)c5)c(Cl)c4)c3c2)o1 [Lapatinib] (partner 2 µM), which relative viability ([1]; first compound 0.08 µM) is on record?
Answer: Its relative viability is 1.

Question: And the relative viability ([1]; first compound 0.8 µM)?
Answer: The relative viability was 1.15.

Question: And the relative viability ([1]; first compound 2.53 µM)?
Answer: The relative viability was 0.9.

Question: And the relative viability ([1]; first compound 8 µM)?
Answer: Its relative viability is 0.863.

Question: What about the relative viability ([2]; first compound 0.08 µM) of the same compound?
Answer: The relative viability was 0.789.

Question: What about the relative viability ([2]; first compound 0.8 µM) of the same compound?
Answer: The relative viability was 0.974.

Question: And the relative viability ([2]; first compound 2.53 µM)?
Answer: The relative viability was 0.99.

Question: And the relative viability ([2]; first compound 8 µM)?
Answer: The relative viability was 0.824.

Question: And the relative viability ([3]; first compound 0.08 µM)?
Answer: The relative viability was 0.961.

Question: And the relative viability ([3]; first compound 0.8 µM)?
Answer: Its relative viability is 0.882.

Question: What about the relative viability ([3]; first compound 2.53 µM) of the same compound?
Answer: Its relative viability is 0.978.

Question: And the relative viability ([3]; first compound 8 µM)?
Answer: Its relative viability is 0.936.

Question: And the relative viability ([4]; first compound 0.08 µM)?
Answer: The relative viability was 0.356.

Question: And the relative viability ([4]; first compound 0.8 µM)?
Answer: The relative viability was 0.436.

Question: What about the relative viability ([4]; first compound 2.53 µM) of the same compound?
Answer: The relative viability was 0.384.

Question: And the relative viability ([4]; first compound 8 µM)?
Answer: Its relative viability is 0.391.

Question: And the relative viability ([5]; first compound 0.08 µM)?
Answer: Its relative viability is 1.02.

Question: And the relative viability ([5]; first compound 0.8 µM)?
Answer: The relative viability was 0.929.

Question: What about the relative viability ([5]; first compound 2.53 µM) of the same compound?
Answer: Its relative viability is 0.968.

Question: What about the relative viability ([5]; first compound 8 µM) of the same compound?
Answer: The relative viability was 0.969.

Question: And the relative viability ([6]; first compound 0.08 µM)?
Answer: Its relative viability is 0.496.

Question: What about the relative viability ([6]; first compound 0.8 µM) of the same compound?
Answer: The relative viability was 0.496.

Question: And the relative viability ([6]; first compound 2.53 µM)?
Answer: Its relative viability is 0.516.

Question: What about the relative viability ([6]; first compound 8 µM) of the same compound?
Answer: The relative viability was 0.477.

Question: What about the relative viability ([7]; first compound 0.08 µM) of the same compound?
Answer: Its relative viability is 0.68.

Question: What about the relative viability ([7]; first compound 0.8 µM) of the same compound?
Answer: The relative viability was 0.833.

Question: And the relative viability ([7]; first compound 2.53 µM)?
Answer: The relative viability was 0.801.

Question: And the relative viability ([7]; first compound 8 µM)?
Answer: Its relative viability is 0.686.

Question: And the relative viability ([8]; first compound 0.08 µM)?
Answer: The relative viability was 0.96.

Question: And the relative viability ([8]; first compound 0.8 µM)?
Answer: The relative viability was 1.16.

Question: What about the relative viability ([8]; first compound 2.53 µM) of the same compound?
Answer: The relative viability was 1.07.

Question: What about the relative viability ([8]; first compound 8 µM) of the same compound?
Answer: The relative viability was 0.983.

Question: What about the relative viability ([9]; first compound 0.08 µM) of the same compound?
Answer: Its relative viability is 0.932.

Question: And the relative viability ([9]; first compound 0.8 µM)?
Answer: The relative viability was 0.959.

Question: What about the relative viability ([9]; first compound 2.53 µM) of the same compound?
Answer: The relative viability was 0.926.

Question: What about the relative viability ([9]; first compound 8 µM) of the same compound?
Answer: The relative viability was 0.817.

Question: And the relative viability ([10]; first compound 0.08 µM)?
Answer: Its relative viability is 0.906.

Question: And the relative viability ([10]; first compound 0.8 µM)?
Answer: The relative viability was 0.991.

Question: And the relative viability ([10]; first compound 2.53 µM)?
Answer: Its relative viability is 1.24.

Question: And the relative viability ([10]; first compound 8 µM)?
Answer: Its relative viability is 0.825.

Question: What about the relative viability ([11]; first compound 0.08 µM) of the same compound?
Answer: Its relative viability is 0.197.

Question: And the relative viability ([11]; first compound 0.8 µM)?
Answer: Its relative viability is 0.528.

Question: What about the relative viability ([11]; first compound 2.53 µM) of the same compound?
Answer: Its relative viability is 0.215.

Question: What about the relative viability ([11]; first compound 8 µM) of the same compound?
Answer: The relative viability was 0.211.

Question: What about the relative viability ([12]; first compound 0.08 µM) of the same compound?
Answer: The relative viability was 0.225.

Question: And the relative viability ([12]; first compound 0.8 µM)?
Answer: Its relative viability is 0.281.

Question: And the relative viability ([12]; first compound 2.53 µM)?
Answer: Its relative viability is 0.234.

Question: And the relative viability ([12]; first compound 8 µM)?
Answer: The relative viability was 0.281.

Question: What about the relative viability ([13]; first compound 0.08 µM) of the same compound?
Answer: Its relative viability is 0.428.

Question: And the relative viability ([13]; first compound 0.8 µM)?
Answer: The relative viability was 0.473.

Question: And the relative viability ([13]; first compound 2.53 µM)?
Answer: Its relative viability is 0.477.

Question: And the relative viability ([13]; first compound 8 µM)?
Answer: Its relative viability is 0.406.

Question: What about the relative viability ([14]; first compound 0.08 µM) of the same compound?
Answer: The relative viability was 0.743.

Question: What about the relative viability ([14]; first compound 0.8 µM) of the same compound?
Answer: The relative viability was 0.92.

Question: And the relative viability ([14]; first compound 2.53 µM)?
Answer: The relative viability was 0.778.

Question: What about the relative viability ([14]; first compound 8 µM) of the same compound?
Answer: The relative viability was 0.731.

Question: And the relative viability ([15]; first compound 0.08 µM)?
Answer: The relative viability was 0.96.

Question: And the relative viability ([15]; first compound 0.8 µM)?
Answer: The relative viability was 0.984.

Question: And the relative viability ([15]; first compound 2.53 µM)?
Answer: Its relative viability is 1.08.

Question: What about the relative viability ([15]; first compound 8 µM) of the same compound?
Answer: The relative viability was 0.956.

Question: What about the relative viability ([16]; first compound 0.08 µM) of the same compound?
Answer: The relative viability was 1.11.

Question: And the relative viability ([16]; first compound 0.8 µM)?
Answer: The relative viability was 1.27.

Question: What about the relative viability ([16]; first compound 2.53 µM) of the same compound?
Answer: The relative viability was 0.99.

Question: What about the relative viability ([16]; first compound 8 µM) of the same compound?
Answer: The relative viability was 0.754.

Question: And the relative viability ([17]; first compound 0.08 µM)?
Answer: Its relative viability is 0.784.

Question: What about the relative viability ([17]; first compound 0.8 µM) of the same compound?
Answer: The relative viability was 0.938.

Question: What about the relative viability ([17]; first compound 2.53 µM) of the same compound?
Answer: The relative viability was 1.04.

Question: What about the relative viability ([17]; first compound 8 µM) of the same compound?
Answer: Its relative viability is 0.466.

Question: What about the relative viability ([18]; first compound 0.08 µM) of the same compound?
Answer: The relative viability was 0.467.

Question: And the relative viability ([18]; first compound 0.8 µM)?
Answer: Its relative viability is 0.596.

Question: What about the relative viability ([18]; first compound 2.53 µM) of the same compound?
Answer: The relative viability was 0.545.

Question: What about the relative viability ([18]; first compound 8 µM) of the same compound?
Answer: Its relative viability is 0.48.

Question: And the relative viability ([19]; first compound 0.08 µM)?
Answer: The relative viability was 1.07.

Question: And the relative viability ([19]; first compound 0.8 µM)?
Answer: The relative viability was 1.02.

Question: And the relative viability ([19]; first compound 2.53 µM)?
Answer: Its relative viability is 1.2.

Question: And the relative viability ([19]; first compound 8 µM)?
Answer: The relative viability was 1.23.

Question: What about the relative viability ([20]; first compound 0.08 µM) of the same compound?
Answer: Its relative viability is 1.36.

Question: What about the relative viability ([20]; first compound 0.8 µM) of the same compound?
Answer: The relative viability was 1.1.

Question: What about the relative viability ([20]; first compound 2.53 µM) of the same compound?
Answer: Its relative viability is 1.41.

Question: What about the relative viability ([20]; first compound 8 µM) of the same compound?
Answer: The relative viability was 1.08.

Question: And the relative viability ([21]; first compound 0.08 µM)?
Answer: Its relative viability is 0.757.

Question: What about the relative viability ([21]; first compound 0.8 µM) of the same compound?
Answer: Its relative viability is 0.878.

Question: And the relative viability ([21]; first compound 8 µM)?
Answer: Its relative viability is 0.703.

Question: What about the relative viability ([22]; first compound 0.08 µM) of the same compound?
Answer: The relative viability was 1.03.

Question: What about the relative viability ([22]; first compound 0.8 µM) of the same compound?
Answer: The relative viability was 1.04.

Question: And the relative viability ([22]; first compound 2.53 µM)?
Answer: Its relative viability is 1.06.

Question: What about the relative viability ([22]; first compound 8 µM) of the same compound?
Answer: Its relative viability is 0.97.

Question: And the relative viability ([23]; first compound 0.08 µM)?
Answer: Its relative viability is 0.774.

Question: And the relative viability ([23]; first compound 0.8 µM)?
Answer: The relative viability was 0.908.

Question: What about the relative viability ([23]; first compound 2.53 µM) of the same compound?
Answer: The relative viability was 0.841.

Question: And the relative viability ([23]; first compound 8 µM)?
Answer: Its relative viability is 0.65.

— the supplement of paper PMC10307832
